In patent US7192722B2, “Phenethanolamine-derived haptens, immunogens, antibodies and conjugates” (Randox Laboratories, priority 2004, dated 2007):
≈ marks a conversion by molar mass, not a printed value. Where “and” joins values, the source holds several entries; their conditions need not be identical. Identical values can stand only once.

Legend:
[1] = system: IgG fraction of the antiserum raised to immunogen E (hapten E-BSA); experiment: Competitive ELISA for ritodrine, Example 25: antiserum to immunogen E, conjugate E (hapten E-HRP); type: binding; conditions: for % CR: cross-reactivity relative to ritodrine = 100%
[2] = system: IgG fraction of the antiserum raised to immunogen C (hapten C-BSA); experiment: Competitive ELISA for ractopamine, Example 22 b): antiserum to immunogen C, conjugate C (hapten C-HRP); type: binding, sheep; conditions: for % CR: cross-reactivity relative to ractopamine = 100%
Experimental: (§1) An aqueous solution of each immunogen was formulated with Freund's Complete Adjuvant (FCA) to form an emulsion consisting of 2 mg/ml immunogen in 50% (v/v) FCA. Three sheep were immunised with this emulsion (1° immunisation), 0.25 ml being subcutaneously injected at each of four sites in the flank of each animal. Subsequent immunizations (boosts) contained 1 mg/ml immunogen. All boosts were emulsified in 50% (v/v) Freund's Incomplete Adjuvant (FIA) and were administered in the same manner as the 1° immunisation, at monthly intervals for 1 year. Blood sampling took place 7 to 14 days after each boost. Each sample was processed to produce antiserum, which was further purified by caprylic acid and ammonium sulfate precipitation to yield an immunoglobulin G (IgG) fraction.
The same definitions apply for A450, B, B0 and IC50.
(§2) Employing each series of standards in the ractopamine competitive ELISAs, calibration curves were generated and these were used to determine the cross-reactivity of each immunoassay with these substances.

[3] = system: Shelver monoclonal antibody (5G10); conditions: Shelver mAb, cited from earlier work; for % CR: relative to ractopamine = 100%
[4] = system: IgG fraction of the antiserum raised to immunogen D (hapten D-BSA); experiment: Competitive ELISA for isoxsuprine, Example 24: antiserum to immunogen D, conjugate D (hapten D-HRP); type: binding; conditions: for % CR: cross-reactivity relative to isoxsuprine = 100%
[5] = system: Shelver polyclonal antiserum (ractopamine-hemiglutarate-KLH); conditions: Shelver pAb, cited from earlier work; for % CR: relative to ractopamine = 100%
[6] = system: IgG fraction of the antiserum raised to immunogen A (hapten A-BSA); experiment: Competitive ELISA for ractopamine, Example 22 a): antiserum to immunogen A, conjugate A (hapten A-HRP); type: binding, sheep; conditions: for % CR: cross-reactivity relative to ractopamine = 100%
Experimental: as §1
The appropriate antibody coating dilution was determined using standard ELISA checkerboard techniques. The plate was incubated for 2 hours at 37° C., washed 4 times with Tris buffered saline containing Tween 20 (TBST) and tapped dry. Standard solutions of ractopamine were prepared in TBST at 0, 0.05, 0.1, 0.5, 1, and 5 ng/ml, and 50 μl of each was added to the appropriate wells. […] The appropriate dilution of conjugate was also determined using standard ELISA checkerboard techniques. The plate was incubated at 37° C. for 2 hours. Excess unbound conjugate was removed by washing 6 times over a 10 minute period with TBST. 125 μl of tetramethylbenzidine (TMB) substrate solution was added to each well of the plate that was then incubated for 15 to 20 minutes in the dark at room temperature. The reaction was terminated by addition of 125 μl 0.2M H2SO4 to each well. The absorbance was then measured at 450 nm using a microtiter plate reader.
as §2

[7] = system: Haasnoot antibody derived from a fenoterol derivative; conditions: cited from earlier work

Molecule | % CR [2] [%] | IC50 CR [3] | % CR [3] [%] | IC50 CR [5] | % CR [5] [%] | % CR [6] [%] | further results
CC(COc1ccccc1)NC(C)C(O)c1ccc(O)cc1 (stereo not drawn) [Isoxsuprine] | <0.6 | 1,391 ng/ml | 0.2 | 6,200 ng/ml | 0.1 | <0.16 | % CR [1]: 20.2%; % CR [4]: 100%; % B/B0 ([4]; isoxsuprine 0.5 ng/ml): 31.6%; % B/B0 ([4]; isoxsuprine 1 ng/ml): 17.0%; % B/B0 ([4]; isoxsuprine 5 ng/ml): 6.7%; % B/B0 ([4]; isoxsuprine 10 ng/ml): 4.9%; % B/B0 ([4]; isoxsuprine 50 ng/ml): 1.5%; % B/B0 ([4]; isoxsuprine 100 ng/ml): 1.3%; % B/B0 ([4]; isoxsuprine 200 ng/ml): 0.9%
CC(C)NC[C@H](O)c1ccc(O)c(O)c1 [(−) Isoproterenol] | <0.01 | – | – | – | – | <0.16 | –
OCc1cc(C(O)CNCCCCCCOCCCCc2ccccc2)ccc1O (stereo not drawn) [Salmeterol Xinafoate] | <0.5 | 1519 ng/mL (≈ 3.66 µM) | 0.2 | 1,800 ng/ml | 0.2 | <0.16 | –
CC(NCCc1ccc(O)cc1)C(O)c1ccc(O)cc1 (stereo not drawn) [Ritodrine] | <0.5 | 73.8 ng/mL (≈ 0.257 µM) | 3.6 | 577 ng/mL (≈ 2.01 µM) | 0.8 | <0.16 | % CR [1]: 100%; % B/B0 ([1]; ritodrine 1 ng/ml): 92.0%; % B/B0 ([1]; ritodrine 5 ng/ml): 82.3%; % B/B0 ([1]; ritodrine 10 ng/ml): 80.2%; % B/B0 ([1]; ritodrine 50 ng/ml): 64.7%; % B/B0 ([1]; ritodrine 100 ng/ml): 55.9%; % B/B0 ([1]; ritodrine 500 ng/ml): 30.0%; % B/B0 ([1]; ritodrine 1000 ng/ml): 22.6%; % CR [4]: <0.1%
Methyl Clenbuterol | <0.05 | – | – | – | – | <0.16 | –
CC(C)(C)NCC(O)c1cc(O)cc(O)c1 (stereo not drawn) [Terbutaline] | <0.01 | – | – | – | – | <0.16 | –
CC(CCc1ccc(O)cc1)NCCc1ccc(O)c(O)c1 (stereo not drawn) [Dobutamine] | <0.8 | 50.3 ng/mL (≈ 0.167 µM) | 5.3 | 12.7 ng/mL (≈ 0.0421 µM) | 33 | 0.186 | % CR [1]: <5.0%; % CR ([2]; listed as dobutamine): < 0.8%; % CR [4]: <0.1%; % CR ([6]; listed as dobutamine): 0.186% and < 0.8%
CC(C)(C)NCC(O)c1cc(Cl)c(N)c(Cl)c1 (stereo not drawn) [Clenbuterol] | <0.01 | – | <0.1 | >100,000 ng/ml | <0.01 | <0.16 | –
CC(C)NCC(O)c1cc(O)cc(O)c1 (stereo not drawn) [Metaproterenol] | <0.01 | – | – | >100,000 ng/ml | <0.01 | <0.16 | –
CC(C)(C)NCC(O)c1ccc(O)c(CO)c1 (stereo not drawn) [Salbutamol] | <0.01 | – | <0.1 | 79,000 ng/ml | <0.01 | <0.16 | –
NCCc1ccc(O)c(O)c1 [Dopamine] | <0.01 | – | – | – | – | <0.16 | –
CC(CCc1ccc(O)cc1)NCC(O)c1ccc(O)cc1 (stereo not drawn) [Ractopamine] | 100 | 2.69 ng/mL (≈ 0.00893 µM) | 100 | 4.2 ng/mL (≈ 0.0139 µM) | 100 | 100 | % CR [1]: <0.5%; % B/B0 ([2]; ractopamine 0.025 ng/ml): 84%; % B/B0 ([2]; ractopamine 0.1 ng/ml): 65%; % B/B0 ([2]; ractopamine 0.25 ng/ml): 46%; % B/B0 ([2]; ractopamine 0.5 ng/ml): 34%; % B/B0 ([2]; ractopamine 1 ng/ml): 24%; % CR [4]: <0.1%; cross-reactivity [7]: 20%; % B/B0 ([6]; ractopamine 0.05 ng/ml): 53.5%; % B/B0 ([6]; ractopamine 0.1 ng/ml): 49.5%; % B/B0 ([6]; ractopamine 0.5 ng/ml): 23.7%; % B/B0 ([6]; ractopamine 1 ng/ml): 16.9%; % B/B0 ([6]; ractopamine 5 ng/ml): 6.33%
CC(C)(C)NCC(O)c1ccccc1Cl (stereo not drawn) [Tulobuterol] | <0.05 | – | – | – | – | <0.16 | –
CCCCNCC(O)c1ccc(O)cc1 (stereo not drawn) [Bamethane] | <0.01 | 831 ng/mL (≈ 3.97 µM) | 0.3 | 2,900 ng/ml | 0.1 | <0.16 | –
CC(C)NCC(O)c1ccc(N)c(C#N)c1 (stereo not drawn) [Cimaterol] | <0.01 | – | – | – | – | <0.16 | –
CC(Cc1ccc(O)cc1)NCC(O)c1cc(O)cc(O)c1 (stereo not drawn) [Fenoterol] | <0.05 | 2,682 ng/ml | 0.1 | 310 ng/mL (≈ 1.02 µM) | 1.3 | <0.16 | –
CC(C)NCC(O)c1ccc(O)c(O)c1 (racemic) [DL-Isoproterenol] | <0.5 | – | – | >100,000 ng/ml | <0.01 | <0.16 | –
CC(C)(C)NCC(O)c1cc(Cl)c(N)c(C(F)(F)F)c1 (stereo not drawn) [Mabuterol] | <0.01 | – | – | – | – | <0.16 | –
CC(C)(C)NCC(O)c1ccc(O)c(CO)n1 (stereo not drawn) [Pirbuterol] | <0.05 | – | – | – | – | <0.16 | –
